Results as given in ChEMBL document CHEMBL1127160, “Phenylalkyl ketones as potent reversible inhibitors of interleukin-1 converting enzyme” (Bioorg Med Chem Lett, 1993).

Biological target: T1, Caspase-1 (Homo sapiens, UniProt P29466)
T1 sequence (P29466 whole entry): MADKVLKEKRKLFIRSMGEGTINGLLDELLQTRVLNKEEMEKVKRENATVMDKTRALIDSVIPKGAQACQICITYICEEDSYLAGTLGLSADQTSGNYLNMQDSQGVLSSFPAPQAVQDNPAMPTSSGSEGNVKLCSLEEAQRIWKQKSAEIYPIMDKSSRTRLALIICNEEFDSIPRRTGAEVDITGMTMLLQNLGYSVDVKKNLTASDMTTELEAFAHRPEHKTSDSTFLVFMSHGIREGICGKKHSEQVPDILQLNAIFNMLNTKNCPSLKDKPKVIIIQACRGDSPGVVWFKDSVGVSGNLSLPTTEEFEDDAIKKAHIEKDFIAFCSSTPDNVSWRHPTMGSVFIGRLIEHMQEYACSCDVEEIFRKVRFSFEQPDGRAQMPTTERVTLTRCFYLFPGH
Assay: The compound was tested for its inhibitory activity against IL-1 beta converting enzyme

| SMILES | Ki [µM] |
| --- | --- |
| CC(=O)N[C@@H](Cc1ccc(O)cc1)C(=O)N[C@H](C(=O)N[C@@H](C)C(=O)N[C@@H](CC(=O)O)C(=O)CCCCc1ccccc1)C(C)C | 0.042 |
| CC(=O)N[C@@H](Cc1ccc(O)cc1)C(=O)N[C@H](C(=O)N[C@@H](C)C(=O)N[C@@H](CC(=O)O)C(=O)C1CCCCC1)C(C)C | > 100 |
| CC(C)[C@H](NC(=O)CCc1ccccc1)C(=O)N[C@@H](C)C(=O)N[C@@H](CC(=O)O)C(=O)Cc1ccccc1 | 3.1 |
| CC(C)[C@H](NC(=O)CCc1ccccc1)C(=O)N[C@@H](C)C(=O)N[C@@H](CC(=O)O)C(=O)CCCc1ccccc1 | 0.1 |
| CC(C)[C@H](NC(=O)CCc1ccccc1)C(=O)N[C@@H](C)C(=O)N[C@@H](CC(=O)O)C(=O)CCc1ccccc1 | 0.61 |
| CC(=O)N[C@@H](Cc1ccc(O)cc1)C(=O)N[C@H](C(=O)N[C@@H](C)C(=O)N[C@@H](CC(=O)O)C(=O)CCCCCc1ccccc1)C(C)C | 0.0185 |
| CCC(=O)[C@H](CC(=O)O)NC(=O)[C@H](C)NC(=O)[C@@H](NC(=O)[C@H](Cc1ccc(O)cc1)NC(C)=O)C(C)C | 4 |
| CC(=O)N[C@@H](Cc1ccc(O)cc1)C(=O)NC(C(=O)N[C@@H](C)C(=O)NC(CC(=O)O)C(C)=O)C(C)C (single isomer, unassigned) | > 10 |
| CC(=O)N[C@@H](Cc1ccc(O)cc1)C(=O)N[C@H](C(=O)N[C@@H](C)C(=O)N[C@@H](CC(=O)O)C(=O)c1ccccc1)C(C)C (stereo in doubt) | 10 |
| CC(=O)N[C@@H](Cc1ccc(O)cc1)C(=O)N[C@H](C(=O)N[C@@H](C)C(=O)N[C@@H](CC(=O)O)C(=O)c1ccccc1)C(C)C (stereo in doubt; 7c) | > 100 |
